Source: patent publication US8257714B2, “Compositions and methods for immunotherapy of cancer and infectious diseases” (priority 2003, dated 2012)

What was measured:
[1] = test system: DC-activity induced by ARP preparations; assay: Effect of divalent cations on DC-activity of ARP; format: cell-based, mouse; conditions: mM-μM concentration range
Description: Some differences exist in the interaction of copper and zinc with ARP and must be explored further. […] The former was inhibited by both-calcium and magnesium ions, while the latter—only by magnesium ions.

[2] = test system: Plasmodium yoelii; assay: Malaria in mice; format: in vivo, C57BL/6 mice; conditions: 40 mg/kg i.p. Days 1-5
Description: Groups of male C57BL/6 mice were inoculated i.v. on Day 0 with an infectious dose of Plasmodium yoelii. Groups of mice were administered, by i.p. injection, one of three concentrations of the test material (0.1, 1.0 or 10.0 ng/mouse/day) or vehicle on Day 1 and again on Days 2 through 5, for a total of five doses. An additional assay control group of mice was administered approximately 40 mg of Chloroquine per kg of body weight by i.p. injection on Days 1 through 5 as well.

[3] = test system: Candida albicans; assay: Candida albicans infection in mice; format: in vivo, CDI mice
Description: Groups of female CDI mice were inoculated intravenously (i.v.) on Day 0 with an infectious dose of Candida albicans calculated to provide 60-100% mortality in the control group. Groups of mice were administered, by i.p. injection, one of three concentrations of the test material (0.1, 1.0 or 10.0 ng/mouse/day) or vehicle on Day 0, approximately 1.5 hours following infectious challenge, and again on Days 1 through 4, for a total of five doses. An additional assay control group of mice was administered approximately 80 mg of fluconazole per kg of body weight by oral gavage approximately 1, 24, 48 and 72 hours following infectious challenge.

[4] = test system: freshly isolated dendritic cells (CD11c+ splenocytes); assay: Dendritic cell (DC) assay: IL12 release from freshly isolated dendritic cells; format: cell-based, BALB/c mice; conditions: tested for synergism and inhibition
Description: In a preferred embodiment, dendritic cell (DC) assay is used to follow interleukin-12 (IL-12) release from freshly isolated dendritic cells as an index of DC activation (see section 12.3). […] Briefly, by way of example but not limitation, a DC assay can be carried out as follows: freshly isolated dendritic cells (CD11c^+ splenocytes, e.g., isolated from the spleens of BALB/c mice within ten hours of assaying the activity) are suspended at a density of 0.5×10^6 cells per mL in cytokine supplemented culture media (GM-CSF, 1.0 ng/ml; IL-4, 1.0 ng/ml; IFNg, 3.0 ng/ml; anti mouse CD40, 0.5 mg/ml). […] Mouse IL-12 release from the dendritic cells (CD11c^+ splenocytes) is then measured using ELISA.
To follow the activity in semi-purified preparations of BEX, an assay which follows IL12 release from freshly isolated dendritic cells (DCs) as an index of DC activation was developed. This activity is highly correlated with both NK-CMC in vitro and anti-tumor activity in vivo.
DCs were isolated from the spleens of male BALB/c mice 8-12 weeks of age (Harlan Bioproducts for Science, Indianapolis, Ind.), using the magnetic assisted cell separation (MACS) system purchased from Miltenyi Biotech. In summary: Spleens were aseptically removed from mice and placed into a petri dish containing 5 mL holding media (DMEM/F12 supplemented with 10% FCS and antibiotics). Each spleen was then injected with ˜0.5 mls collagenase D solution (1 mg/mL in 10 mM Hepes-NaOH, pH 7.4, 150 mM NaCl, 5 mM MgCl2, 1.8 mM CaCl2), placed into 5-10 mL collagenase D, cut into 5-6 pieces and incubated at 37° C. for 45-60 min. Collagenase-digested spleens were then processed with glass slides and passed through a 70 μm nylon mesh cell strainer. After the strainer was flushed with 40 mL culture media, cells were centrifuged (8 min @ 200×G), suspended in 1 mL PBS and subjected to red blood cell lysis by incubating the cell suspension for 5 min at room temperature in 10 mL lysis buffer (155 mM NH4Cl, 10 mM KHCO3, 0.1 mM EDTA), followed by dilution in PBS to 50 mL and centrifugation (8 min @ 200×g). The splenocytes were then suspended in 10 mL MACS buffer (PBS pH 7.2, supplemented with 2 mM EDTA and 0.5% BSA), passed through a 40 μm nylon mesh cell strainer which was flushed with 40 mL MACS buffer. A preliminary cell count was taken at this time, prior to centrifugation (8 min @ 200×G). The splenocytes were suspended at a density of 10^8 cells per 400 μL MACS buffer. Paramagnetic MicroBeads coated with anti-CD11c^+ antibody were mixed with the splenocyte suspension (100 μL per 10^8 cells), incubated at +4° C. for 15 min, washed, suspended in 1.0 mL MACS buffer and passed through a MS+ separation column placed within a strong magnetic field. CD11c^+ cells were retained in the column whereas CD11c^− cells were washed off the column as the flow-through cell fraction. CD11c^+ cells were then collected by removing the column out of the magnetic field and flushing the column twice with 1 mL of MACS buffer. CD11c^+ cells were washed once with culture media and suspended at a density of 0.5×10^6 cells per mL in cytokine supplemented culture media {DMEM/F12 supplemented with 10% FCS and gentamicin containing mouse GM-CSF (1 ng/mL), mouse IL-4 (1 ng/mL), mouse IFNγ (3 ng/mL) and anti mouse CD40 (0.5 mg/mL)}.
Mouse IL12 release from CD11c^+ splenocytes was measured using ELISA. Briefly, CD11c+ cell culture supernatants were sampled following an overnight incubation (usually 15-18 hrs). Media samples ([…]) were added to ELISA plates coated with anti mouse IL12 (p70) capture antibody (R&D #MAB419; 250 ng in 100 μL per well) and incubated either at 37° C. or room temperature for 2 hrs. The ELISA plates were washed extensively with wash buffer after which 100 μL per well of detection antibody/detection reagent (biotinylated anti-mouse IL12; R&D #BAF419 at 50 ng/mL and streptavidin-HRP) was added. […]

[5] = test system: Mouse sarcoma 180 cells; assay: NK cell-mediated cytotoxicity (NK-CMC) assay, LGL/S180 co-culture; format: cell-based
Description: In one embodiment, a NK cell assay is used to assess ARP-induced cytotoxic activity of NK-like cells (see section 12.2). Briefly, by way of example but not limitation, a NK cell assay can be carried out as follows: large granular lymphocytes (LGLs) are co-cultured with tumor cells at various ratios (effector to target ratio) for four days at 37° C., 5% CO2. […] The culture is terminated at the end of day 4 and vitally stained using a MTT cell viability quantification assay (see Mossman, T. J. Immunol. Methods 65: 55 (1983); and Sigma Chemical MTT (M5655) product application note). Culture media is aspirated and the remaining cells are washed and replaced with DMEM/F12 plus FCS, containing MTT. The cells are further incubated for 4-5 hours at 37° C. Absorbance is measured with the aid of a plate reader. Decreased absorbance indicated a decrease in the number of viable cells per well (i.e., cytotoxicity). Absorbance is measured again after the MTT is solubilized by replacement of the medium with 2-propanol containing HCl, which gives a uniform color throughout the well. NK-inducing activity is calculated relative to negative (PBS/BSA) and positive (internal standard) controls.
Spleens (10-15 per experiment) were aseptically removed from male Balb/C mice 6-10 weeks of age. Splenocytes were “squeezed” out of spleens using 2 sterile glass microscope slides. Cells were collected in approximately 10 ml of DMEM/F 12 containing 10% fetal calf serum (FCS) and gentamicin (50 μg/ml). Single cell suspensions were generated by passing collected cells through a 70 μm nylon mesh screen. After washing the cell pellet once with PBS (centrifuged at 675×g for 5 min), red blood cells were lysed by brief hypotonic shock (i.e. exposure to sterile distilled, deionized water, followed immediately with appropriate volumes of 10×PBS to return to isotonicity). Remaining cells were centrifuged and resuspended in DMEM/F12+10% FCS and transferred to 75 cm^2 flasks each containing 25 mls DMEM/F12+10% FCS (cells from 5 spleens per flask). The cells were incubated for 60 min. at 37° C. to selectively remove readily adherent cells (mainly fibroblasts and macrophages). After the incubation, the flasks were gently shaken and the non-adherent cells were removed, pelleted by centrifugation, and resuspended in DMEM/F12 (no supplements) (1.0 mL/10^8 cells). A 1.0 mL volume of these cell suspensions were carefully layered onto a 70%/60%/40% (2 mL/4 mL/4 mL) Percoll™ gradients in 15 ml centrifuge tubes and centrifuged for 30 min at 675×G. The cells which sediment at the 40/60 interface represent primarily large granular lymphocytes (LGLs), enriched with NK cells. These cells were carefully removed with a pasteur pipet, centrifuged, washed once with PBS and resuspended in approximately 5 mL DMEM/F12 supplemented with gentamicin (50 μg/mL) and 10% fetal calf serum. Cell counts and appropriate dilutions of LGL cells were made with these cells, as described below. For convenience this LGL cell preparation is interchangeably referred to as NK cells.
Mouse sarcoma 180 cells were seeded into 96 well plates at a density of 5×10^3 cells per well in 100 μl DMEM/F12, supplemented with 10% FCS and gentamicin (50 μg/mL). […] NK cells were added in 100 μL of supplemented DMEM/F12 at designated densities: 0 NK cells/well; 5×10^4 NK cells/well (1:10 target/effector ratio); 1.25×10^5 NK cells/well (1:25 target/effector ratio); 2.5×10^5 NK cells/well (1:50 target/effector ratio); and, 5×10^5 NK cells/well (1:100 target/effector ratio). (Note: routinely, only the 1:50 and 1:100 ratios were used for screening purposes. IL2 was added as a media supplement with final concentration of 125 U/mL.). Co-cultures were incubated for 4 days at 37° C., 5% CO2, and terminated and vitally stained using a MTT cell viability quantification assay (see Mossman, T. J. Immunol. Methods 65:55 (1983); and Sigma Chemical MTT (M5655) product application note). […]

Molecule: [Ca+2].[Cl-].[Cl-] [CaCl2]
- inhibition of DC-activity of crude ARP preparations [1]: did not

Molecule: CCN(CC)CCCC(C)Nc1ccnc2cc(Cl)ccc12 (stereo not shown) [Chloroquine]
- Parasitized Erytthrocytes % [2]: 12%
- Survival (Days) ± SD [2]: 37.0 ± 0.7 days

Molecule: [Cl][Cu][Cl] [CuCl2]
- inhibition of DC-activity of crude ARP preparations [1]: showed inhibition of activity

Molecule: OC(Cn1cncn1)(Cn1cncn1)c1ccc(F)cc1F [Fluconazole, fluconazole]
- Percent Mortality ([3]; ~80 mg/kg oral gavage): 0%
- Mean Survival Time ([3]; ~80 mg/kg oral gavage 1, 24, 48 and 72 hours after challenge, all animals): 14.0 days

Molecule: [Cl-].[Cl-].[Mg+2] [MgCl2]
- inhibition of DC-activity of crude ARP preparations [1]: did not

Molecule: [Cl-].[Cl-].[Zn+2] [ZnCl2]
- inhibition of DC-activity of crude ARP preparations [1]: showed inhibition of activity

B1: IL-10: interleukin (protein, UniProt P18893 19-178, looked up)
Interleukin-10: SRGQYSREDNNCTHFPVGQSHMLLELRTAFSQVKTFFQTKDQLDNILLTDSLMQDFKGYLGCQALSEMIQFYLVEVMPQAEKHGPEIKEHLNSLGEKLKTLRMRLRRCHRFLPCENKSKAVEQVKSDFNKLQDQGVYKAMNEFDIFINCIEAYMMIKMKS
- DC mIL12 Release [4]: inhibitory
- NK-CMC Activity ([5]; wide range of concentrations, presence and absence of IL-2 (125 U/ml)): −

B2: IFNγ: Interferon-gamma (protein, UniProt P01580 23-155, looked up)
Interferon gamma: HGTVIESLESLNNYFNSSGIDVEEKSLFLDIWRNWQKDGDMKILQSQIISFYLRLFEVLKDNQAISNNISVIESHLITTFFSNSKAKKDAFMSIAKFEVNNPQVQRQAFNELIRVVHQLLPESSLRKRKRSRC
- DC mIL12 Release [4]: −
- NK-CMC on direct addition ([5]; added directly to NK/S180 co-cultures): slight increase
- maximal response in the presence of IL-2 ([5]; table footnote): ^6Weakly activates NK cells in the presence of IL-2 (maximal response <50% cytotoxicity).
